Legend:
[1] = test system: vasospasm and DCI after SAH; conditions: cited from earlier work
[2] = test system: delayed cerebral ischemia (DCI) after aneurismal SAH; assay: Clinical neurological status and outcome (Hunt&Hess, WFNS, GCS, mNIH-SS, mRS) of the SAH patient; conditions: for recurrent clinical deteriorations (times observed): despite Nimodipine and Molsidomine infusions, right- and left-sided deficits or coma
[3] = test system: cerebral vasospasm of the middle cerebral artery (MCA) after aneurismal SAH; assay: Transcranial Doppler (TCD) mean blood flow velocity in the MCAs, rescue treatment of one SAH patient; conditions: for MCA TCD R/L PRE, right / MCA TCD R/L PRE, left: continuously infused Molsidomine
[4] = test system: cerebral arteries / brain perfusion after aneurismal SAH; assay: Radiology (CT, CT-A, CT-P, DSA/arteriography, MRI) of the SAH patient; assay type: in vivo, human
[5] = 3, 6, and 12 months follow up, continuous Molsidomine plus intraventricular SNP boluses
[6] = Discharge at 38th POD, after Molsidomine + Nimodipine + 7 SNP boluses
[7] = discharge on the 38th day after SAH
[8] = discharge on the 38th day after SAH, Nimodipine + Molsidomine + 7 SNP boluses

For COc1ccccc1Oc1c(NS(=O)(=O)c2ccc(C)cn2)nc(-c2ccnc(-c3nnn[nH]3)c2)nc1OCCO [Clazosentan], the “outcome despite powerful suppression of (measurable) vasospasms” value ([1]; Macdonald et al. 2007) is listed as “does not lead to an improved outcome”.
In the case of CCOC(=O)[N-]c1c[n+](N2CCOCC2)no1 [Molsidomine, N-ethoxycarbonyl-3-morpholinosydnonimine], the cognitive deficit [2, 5] is reported as “did not have any cognitive deficit”, the mNIH-SS [2, 5] is reported as 0 and the mRS [2, 5] is reported as 0. The “RESULT: cognitive skills” value [2, 6] was “full cognitive”, the “RESULT: mNIH-SS” value [2, 6] was “mNIH-SS: 0” and the “RESULT: mRS” value [2, 6] was “mRS: 0”. For the same compound, the “clinical stabilization (Hunt&Hess grade I, WFNS I)” value ([2]; Molsidomine given after failure of standard therapy, before vasospasm and DCI progressed) was “clinical stabilization had been achieved for a week”, the “recurrent clinical deteriorations (times observed)” value [2] was 7 times and the “Hunt&Hess grade” value [2, 7] was 0. For the same compound, the cognitive deficit [2, 7] was “without cognitive deficit”, the mNIH-SS grade [2, 8] was 0 and the mRS grade [2, 8] was 0. The “clinical status (HH I, WFNS I)” value ([2]; intravenous Molsidomine at the full dose, for several days) was “clinically stable”, the GCS ([2]; intravenous Molsidomine at the full dose, several days) was 14-15 and the “TCD mean flow velocity in the left MCA (LMCA)” value ([3]; 9th day after SAH at deterioration under Molsidomine, before SNP, 140 cm/sec the day before) was 150 cm/s. For the same compound, the “TCD mean flow velocity in the RMCA” value ([3]; 9th day after SAH at deterioration under Molsidomine, before SNP, unchanged) was 80 cm/s, the “MCA TCD R/L PRE, right” value ([3]; POD 9th first episode (R hemiplegia, aphasia), before 1st SNP dose, mean flow) was “r: 160/ cm/sec” and the “MCA TCD R/L PRE, left” value ([3]; POD 9th first episode, before 1st SNP dose, mean flow) was “l: 150 cm/sec”. The “MCA TCD R/L PRE, right” value ([3]; POD 9th second episode (hemiplegia l, sopor), before 2nd SNP dose) was “r: 190 cm/sec”, the “MCA TCD R/L PRE, right” value ([3]; POD 10th 3rd episode (hemiplegia l, sopor), before 3rd SNP dose) was “r: 170 cm/sec” and the “MCA TCD R/L PRE, right” value ([3]; POD 17th 4th episode (hemiplegia, hemiparesis, sopor, intubation), before 4th SNP dose) was “R: 170 cm/sec”. For the same compound, the “MCA TCD R/L PRE, left” value ([3]; POD 17th 4th episode, before 4th SNP dose) was “L: 120 cm/sec”, the “MCA TCD R/L PRE, right” value ([3]; POD 18 6th episode (still intubated), before 6th SNP dose) was “R: 160 cm/sec” and the “MCA TCD R/L PRE, left” value ([3]; POD 18 6th episode, before 6th SNP dose) was “L: 110 cm/sec”. The “MCA TCD R/L PRE, right” value ([3]; POD 22 7th episode (sudden loss of vigilance), before 7th SNP dose) was “R: 180 cm/sec”, the “MCA TCD R/L PRE, left” value ([3]; POD 22 7th episode, before 7th SNP dose) was “L: 140 cm/sec” and the “MCA TCD R/L (values)” value ([3]; POD 23-38, tapering of Molsidomine and Nimodipine, after 7 SNP boluses) was “Normal”. The “mean blood flow velocities in both MCAs” value ([3]; intravenous Molsidomine at the full dose (16 mg/hr), with Nimodipine) was no more than 160 cm/s, the “RADIOLOGY pre SNP (CT; CT-A; CT-P)” value ([4]; POD 17th 4th episode, before 4th SNP dose, during Molsidomine, both sides l > r, CTT prolonged, high grade vasospasm in MCAs and ACA) was “impaired perfusion” and the “RADIOLOGY MRI: temporal ischemic lesion and gliosis at ventricular drainage site” value ([4]; POD 23-38, tapering of Molsidomine and Nimodipine) was “MRI (5): tiny”. For the same compound, the “clinical outcome and cerebral infarction” value ([1]; SAH patients treated with intravenous molsidomine (Ehlert et al., 2015)) was “significant improvement in clinical outcome and less cerebral infarction”.
In the case of COCCOC(=O)C1=C(C)NC(C)=C(C(=O)OC(C)C)C1c1cccc([N+](=O)[O-])c1 (stereo not drawn) [Nimodipine], the “recurrent clinical deteriorations (times observed)” value [2] is reported as 7 times.

From US10918643B2, “No-donors for the treatment of cerebrovascular vasospasms after brain hemorrhage” (Westfaelische Wilhelms-Universitaet Muenster, priority 2015, dated 2021)
